# Laboratory results published in patent US8314123B2, “5, 6, or 7-substituted -3-(hetero) arylisoquinolinamine derivatives and therapeutic use thereof” (Rexahn Pharmaceuticals, Inc., priority 2006, dated 2012).
# System: human cancer cell lines
# Test: Growth inhibition against the panel of human tumor cell lines (SRB), overall statements
# Assay type: cell-based
# Settings: Table 3 cell lines
# Experimental: (§1) Cancer cell lines to determine the effect of 5, 6, or 7-substituted-3-(hetero)arylisoquinolinamine compounds were obtained from the following sources: Human MDA-MB-231 (breast), PC3 (prostate), HCT-15 (colon), HCT116 (colon), OVCAR-3 (ovary), Caki-1 (kidney), PANC-1 (pancreas), SNB-19 (glioblastoma) and SK-MEL-28 (melanoma) from the American Type Culture Collection (ATCC) (Manassas, Va.). PC3, OVCAR-3, SK-MEL-28 and SNB-19 were grown in RPMI1640 medium (Invitrogen, Carlsbad, Calif.) supplemented with 10% fetal bovine serum (“FBS”), 1 mM sodium pyruvate, 10 mM HEPES and 100 U/ml penicillin and 100 μg/ml streptomycin (“P/S”). MDA-MB-231, Caki-1, HCT-15 (colon) and PANC-1 cells were maintained in Dulbecco's modified Eagle's medium (“DMEM”, Invitrogen) supplemented with 10% FBS, P/S and 10 mM HEPES. HCT116 cells were maintained in DMEM supplemented with 10% FBS, P/S and 10 mM HEPES for in vitro cell proliferation assay and in RPMI1640 medium supplemented with 10% FBS, 1 mM sodium pyruvate, 10 mM HEPES and P/S for in vitro cell cycle analysis. All cells were incubated at 37° C. under humidified 5% CO2.
# (§2) The growth inhibition of the 5, 6, or 7-substituted-3-(hetero)arylisoquinolinamine derivatives against a variety of human tumor cells was evaluated to study the relative importance of particular substituent groups on the compounds. The 5, 6, or 7-substituted-3-(hetero)arylisoquinolinamine derivatives, prepared as described above, were tested with DMSO as a control.
# (§3) The growth inhibition assay of representative 5, 6, or 7-substituted-3-(hetero)arylisoquinolinamine derivatives against human tumor cell lines was performed using the Sulforhodamine B (“SRB”) method (Skehan et al., J. National Cancer Institute, 82: 1107-1112 (1990)). Briefly, exponentially growing tumor cells were seeded into a 96-well plate at a density of 2-3×10^3 cells/well and treated with 5, 6, or 7-substituted-3-(hetero)arylisoquinolinamine compounds the next day. Triplicate wells were used for each treatment. The cells were incubated with the various compounds for 96 hours at 37° C. in a humidified 5% CO2 atmosphere. After 96-hour incubation, cells were fixed with 10% trichloroacetic acid (“TCA”), incubated for 1 hour at 4° C., and washed 3 times with tap water. Subsequently, cells were stained with 0.4% sulforhodamine B in 1% acetic acid for 30 minutes, washed 4 times with 1% acetic acid, and air-dried again. After 5 minutes agitation in 10 mM Tris solution, the absorbance of each well was measured at 530 nm using Benchmark Plus Microplate reader (Bio-Rad Laboratories, Hercules, Calif.).
# (§4) To translate the OD530 values into the number of live cells in each well, the OD530 values were compared to those on standard OD530-versus-cell number curves generated for each cell line. The percent survival was calculated using the formula: % Survival=live cell number [test]/live cell number [control]×100
# (§5) The IC50 values were calculated by non-linear regression analysis.
# Using QSAR and medicinal chemistry techniques, a large number of compounds, including the compounds shown in Table 1-2 above, were synthesized. The synthesized compounds were screened against at least four cancer cell lines, PANC-1, MDA-MB-231, HCT116 and Caki-1, at approximately 1 μM concentration. Compounds showing activity in at least one of these cell lines were selected for further screening. From these compounds, thirty compounds were selected for further evaluation as broad-spectrum anti-proliferative agents as shown in the following Table 3.
row,Compound,activity in growth inhibition of human cancer cell compared to Compound 23
1,"COc1cccc(-c2cc3cc(OC)c(OC)cc3c(N)n2)c1 [Compound 52, 6,7-Dimethoxy-3-(3-methoxyphenyl)isoquinolin-1-amine]",equal or better activity
2,"COc1ccc(C)c(-c2cc3ccc(C)cc3c(N)n2)c1 [Compound 50, 3-(5-Methoxy-2-methylphenyl)-7-methyl-isoquinolin-1-amine]",equal or better activity
3,"Cc1ccc2cc(-c3ccccc3C)nc(N)c2c1 [Compound 48, 7-Methyl-3-o-tolylisoquinolin-1-amine]",equal or better activity

# System: HCT116 (colon)
# Test: In vitro cell proliferation assay (SRB), HCT116
# Assay type: cell-based
# Settings: Homo sapiens, HCT-116; SRB method, 96 hours; Table 3; read-out: Inhibition of cell growth (IC50, μM) HCT116
# Experimental: as §1, §2, §3, §4, §5
row,IC50 [µM],Compound
1,0.16,"COc1cccc(-c2cc3cc(OC)c(OC)cc3c(N)n2)c1 [Compound 52, 6,7-Dimethoxy-3-(3-methoxyphenyl)isoquinolin-1-amine]"
2,0.042,"COc1ccc(C)c(-c2cc3ccc(C)cc3c(N)n2)c1 [Compound 50, 3-(5-Methoxy-2-methylphenyl)-7-methyl-isoquinolin-1-amine]"
3,0.12,"Cc1ccc2cc(-c3ccccc3C)nc(N)c2c1 [Compound 48, 7-Methyl-3-o-tolylisoquinolin-1-amine]"

# System: SNB-19 (glioblastoma)
# Test: In vitro cell proliferation assay (SRB), SNB19
# Assay type: cell-based
# Settings: Homo sapiens, SRB method, 96 hours, read-out: Inhibition of cell growth (IC50, μM) SNB19
# Experimental: as §1, §2, §3, §4, §5
row,IC50 [µM],Compound
1,0.22,"COc1cccc(-c2cc3cc(OC)c(OC)cc3c(N)n2)c1 [Compound 52, 6,7-Dimethoxy-3-(3-methoxyphenyl)isoquinolin-1-amine]"
2,0.052,"COc1ccc(C)c(-c2cc3ccc(C)cc3c(N)n2)c1 [Compound 50, 3-(5-Methoxy-2-methylphenyl)-7-methyl-isoquinolin-1-amine]"
3,0.16,"Cc1ccc2cc(-c3ccccc3C)nc(N)c2c1 [Compound 48, 7-Methyl-3-o-tolylisoquinolin-1-amine]"

# System: SK-MEL-28 (melanoma)
# Test: In vitro cell proliferation assay (SRB), SK-MEL-28
# Assay type: cell-based
# Settings: Homo sapiens, SRB method, 96 hours, read-out: Inhibition of cell growth (IC50, μM) SK-MEL-28
# Experimental: as §1, §2, §3, §4, §5
row,IC50 [µM],Compound
1,0.23,"COc1cccc(-c2cc3cc(OC)c(OC)cc3c(N)n2)c1 [Compound 52, 6,7-Dimethoxy-3-(3-methoxyphenyl)isoquinolin-1-amine]"
2,0.051,"COc1ccc(C)c(-c2cc3ccc(C)cc3c(N)n2)c1 [Compound 50, 3-(5-Methoxy-2-methylphenyl)-7-methyl-isoquinolin-1-amine]"
3,0.18,"Cc1ccc2cc(-c3ccccc3C)nc(N)c2c1 [Compound 48, 7-Methyl-3-o-tolylisoquinolin-1-amine]"

# System: PC3 (prostate)
# Test: In vitro cell proliferation assay (SRB), PC3
# Assay type: cell-based
# Settings: Homo sapiens; SRB method, 96 hours; read-out: Inhibition of cell growth (IC50, μM) PC3
# Experimental: as §1, §2, §3, §4, §5
row,IC50 [µM],Compound
1,0.18,"COc1cccc(-c2cc3cc(OC)c(OC)cc3c(N)n2)c1 [Compound 52, 6,7-Dimethoxy-3-(3-methoxyphenyl)isoquinolin-1-amine]"
2,0.07,"COc1ccc(C)c(-c2cc3ccc(C)cc3c(N)n2)c1 [Compound 50, 3-(5-Methoxy-2-methylphenyl)-7-methyl-isoquinolin-1-amine]"
3,0.26,"Cc1ccc2cc(-c3ccccc3C)nc(N)c2c1 [Compound 48, 7-Methyl-3-o-tolylisoquinolin-1-amine]"

# System: MDA-MB-231 (breast)
# Test: In vitro cell proliferation assay (SRB), MDA-MB-231
# Assay type: cell-based
# Settings: Homo sapiens, SRB method, 96 hours, read-out: Inhibition of cell growth (IC50, μM) MDA-MB-231
# Experimental: as §1, §2, §3, §4, §5
row,IC50 [µM],Compound
1,0.14,"COc1cccc(-c2cc3cc(OC)c(OC)cc3c(N)n2)c1 [Compound 52, 6,7-Dimethoxy-3-(3-methoxyphenyl)isoquinolin-1-amine]"
2,0.03,"COc1ccc(C)c(-c2cc3ccc(C)cc3c(N)n2)c1 [Compound 50, 3-(5-Methoxy-2-methylphenyl)-7-methyl-isoquinolin-1-amine]"
3,0.075,"Cc1ccc2cc(-c3ccccc3C)nc(N)c2c1 [Compound 48, 7-Methyl-3-o-tolylisoquinolin-1-amine]"

# System: PANC-1 (pancreas)
# Test: In vitro cell proliferation assay (SRB), PANC-1
# Assay type: cell-based
# Settings: Homo sapiens, SRB method, 96 hours, read-out: Inhibition of cell growth (IC50, μM) PANC-1
# Experimental: as §1, §2, §3, §4, §5
row,IC50 [µM],Compound
1,0.19,"COc1cccc(-c2cc3cc(OC)c(OC)cc3c(N)n2)c1 [Compound 52, 6,7-Dimethoxy-3-(3-methoxyphenyl)isoquinolin-1-amine]"
2,0.058,"COc1ccc(C)c(-c2cc3ccc(C)cc3c(N)n2)c1 [Compound 50, 3-(5-Methoxy-2-methylphenyl)-7-methyl-isoquinolin-1-amine]"
3,0.2,"Cc1ccc2cc(-c3ccccc3C)nc(N)c2c1 [Compound 48, 7-Methyl-3-o-tolylisoquinolin-1-amine]"

# System: OVCAR-3 (ovary)
# Test: In vitro cell proliferation assay (SRB), OVCAR3
# Assay type: cell-based
# Settings: Homo sapiens, SRB method, 96 hours, read-out: Inhibition of cell growth (IC50, μM) OVCAR3
# Experimental: as §1, §2, §3, §4, §5
row,IC50 [µM],Compound
1,0.074,"COc1cccc(-c2cc3cc(OC)c(OC)cc3c(N)n2)c1 [Compound 52, 6,7-Dimethoxy-3-(3-methoxyphenyl)isoquinolin-1-amine]"
2,0.042,"COc1ccc(C)c(-c2cc3ccc(C)cc3c(N)n2)c1 [Compound 50, 3-(5-Methoxy-2-methylphenyl)-7-methyl-isoquinolin-1-amine]"
3,0.1,"Cc1ccc2cc(-c3ccccc3C)nc(N)c2c1 [Compound 48, 7-Methyl-3-o-tolylisoquinolin-1-amine]"

# System: Caki-1 (kidney)
# Test: In vitro cell proliferation assay (SRB), Caki-1
# Assay type: cell-based
# Settings: Homo sapiens, SRB method, 96 hours, read-out: Inhibition of cell growth (IC50, μM) Caki-1
# Experimental: as §1, §2, §3, §4, §5
row,Compound,IC50 [µM]
1,"COc1cccc(-c2cc3cc(OC)c(OC)cc3c(N)n2)c1 [Compound 52, 6,7-Dimethoxy-3-(3-methoxyphenyl)isoquinolin-1-amine]",0.17
2,"COc1ccc(C)c(-c2cc3ccc(C)cc3c(N)n2)c1 [Compound 50, 3-(5-Methoxy-2-methylphenyl)-7-methyl-isoquinolin-1-amine]",0.047
3,"Cc1ccc2cc(-c3ccccc3C)nc(N)c2c1 [Compound 48, 7-Methyl-3-o-tolylisoquinolin-1-amine]",0.14
